Patent US11571423B2, “Small molecule modulators of human sting” (Curadev Pharma Limited, priority 2017, dated 2023)
Like-named read-outs stand apart in the source and are kept apart here.

Experiments:
[1] = system: NF-κB pathway; assay: Reporter gene expression assay in THP1-Dual cells, NFkB axis (secreted SEAP); format: cell-based, human; settings: 20 hr stimulation, EC50 range class, read-out: THP-NFκB activity
Experimental: (§1) THP1-Dual™ cells (Invivogen) were derived from the human THP-1 monocyte cell line by stable integration of two inducible reporter constructs. As a result, THP1-Dual™ cells allow the simultaneous study of the NF-κB pathway, by monitoring the activity of secreted SEAP, and the IRF pathway, by assessing the activity of a secreted luciferase (Lucia). 5×10^5 THP1-Dual™ cells were seeded in 384-well plates in growth medium and stimulated with novel compounds. After 20 hr of stimulation supernatants were removed and reporter proteins were readily measured in the cell culture supernatant using QUANTI-Blue™ (Invivogen), a SEAP detection reagent, and QUANTI-Luc™ (Invivogen), a luciferase detection reagent on a Spectramax i3X luminometer.
(§2) EC50 value ranges for exemplary compounds tested in the above assay are given.

[2] = molecular target: hSTING(R232) (Homo sapiens, UniProt Q86WV6, H232R); assay: Luciferase reporter assay in HEK293T-hSTING-Luciferase cells, R232 (wild type) human STING; format: cell-based; settings: 20 hr stimulation, read-out: R232 human activity (EC50 range)
hSTING(R232), sequence (Q86WV6 whole entry H232R): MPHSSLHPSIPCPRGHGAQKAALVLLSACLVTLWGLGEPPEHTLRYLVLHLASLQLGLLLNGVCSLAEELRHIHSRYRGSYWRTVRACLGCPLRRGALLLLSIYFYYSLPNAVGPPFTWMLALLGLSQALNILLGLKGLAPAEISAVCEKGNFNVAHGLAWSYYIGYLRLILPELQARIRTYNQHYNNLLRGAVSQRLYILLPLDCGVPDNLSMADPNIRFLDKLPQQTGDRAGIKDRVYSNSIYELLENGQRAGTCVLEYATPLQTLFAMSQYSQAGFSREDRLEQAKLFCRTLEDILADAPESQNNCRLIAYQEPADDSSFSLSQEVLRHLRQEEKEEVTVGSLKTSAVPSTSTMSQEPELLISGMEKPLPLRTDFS
In short: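 Clonal HEK293T cells stably expressing STING from a pUNO-1 plasmid plus an ISRE/ISG54-driven secreted luciferase reporter; 5×10^5 cells stimulated with compound for 20 hr. Supernatant luciferase read by luminescence, giving fold-induction over baseline and EC50.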

[3] = molecular target: hSTING(H232) (Homo sapiens, UniProt Q86WV6); assay: Luciferase reporter assay in HEK293T-hSTING-Luciferase cells, H232/REF polymorph; format: cell-based; settings: H232/REF polymorph of human STING, EC50 range class
hSTING(H232), sequence (Q86WV6 whole entry): as the sequence (Q86WV6 whole entry H232R) above, with R232H counted along it
Description: (§3) Stable Cell Line Generation • a) Stable STING expressing cells—Stable HEK293T STING-expressing cell lines were generated using plasmids purchased from Invivogen, CA, USA, that contain STING cDNA cloned into the pUNO-1 vector under hEF1-HTLV promoter and containing the Blasticidin selection cassette. The plasmids hSTING(R232), hSTING(H232), hSTING(HAQ) were directly procured from Invivogen while hSTING (AQ) and hSTING (Q) were derived from hSTING(HAQ) and hSTING (R232) plasmids respectively by using a PCR based site directed mutagenesis method. These vectors were individually transfected into HEK293T cells using Lipofectamine (Invitrogen) and transfected cells were selected under Blasticidin selection. These transfected cells were further subjected to clonal selection using the limiting dilution method to obtain clonally pure populations of HEK cells transfected with each of the above mentioned human STING variants. Only those clones were selected in which ligand independent activation of STING was minimal. • b) Stable Luciferase reporter gene expressing cells—Stable HEK293T Luciferase reporter gene expressing cell lines were generated using pCDNA4 plasmids under an IRF-inducible promoter. This promoter is comprised of five tandem interferon-stimulated response elements (ISRE) fused to an ISG54 minimal promoter. This vector was transfected into HEK293T cells using Lipofectamine (Invitrogen) and transfected cells were selected under Zeocin selection. These transfected cells were further subjected to clonal selection using the limiting dilution method to obtain clonally pure populations of HEK cells transfected the Luciferase reporter construct. Only those clones were selected in which ligand independent induction of luciferase was minimal.
(§4) 5×10^5 clonally selected HEK293T-hSTING-Luciferase cells were seeded in 384-well plates in growth medium and stimulated with novel compounds. After 20 hr of stimulation supernatant were removed and secretary reporter gene activity were measured using the Quanti-Luc detection system (Invivogen) on a Spectramax i3X luminometer.
(§5) In the tables below, EC50 value ranges for exemplary compounds are given.
(§6) Single nucleotide polymorphisms of human STING have been described, which can affect the functional potency of compounds that modulate the activity of the STING protein (see Yi et. al., PLoS One, October 2013, 8(10), e77846). The 5 major polymorphisms of human STING are shown in FIG. 1, with their prevalence in human populations indicated.
(§7) The tables below show the potency of selected compounds of the invention against the most common polymorphisms.

[4] = molecular target: hSTING(HAQ) (Homo sapiens, UniProt Q86WV6, G230A/H232R/R293Q/R71H); assay: Luciferase reporter assay in HEK293T-hSTING-Luciferase cells, HAQ polymorph; format: cell-based; settings: HAQ polymorph of human STING, EC50 range class
hSTING(HAQ), sequence (Q86WV6 whole entry R71H/G230A/H232R/R293Q): as the sequence (Q86WV6 whole entry H232R) above, with R71H, G230A, R293Q counted along it
Description: as §3, §4, §5, §6, §7

[5] = system: IRF pathway; assay: Reporter gene expression assay in THP1-Dual cells, IRF axis (secreted Lucia luciferase); format: cell-based, human; settings: 20 hr stimulation, EC50 range class, read-out: THP-IRF activity
Experimental: as §1, §2

| SMILES | EC50 ([1]; Homo sapiens) | EC50 [2] | EC50 [3] | EC50 [4] | EC50 ([5]; Homo sapiens) | EC50 [1] | EC50 [5] |
| --- | --- | --- | --- | --- | --- | --- | --- |
| CNc1cccc(F)c1CN1C(=O)N(C)C(C)c2ccc(C(=O)NCc3c(F)cc(F)cc3F)cc21 (stereo not shown) [Example 174, 1-(2-fluoro-6-(methylamino)benzyl)-3,4-dimethyl-2-oxo-N-(2,4,6-trifluorobenzyl)-1,2,3,4-tetrahydroquinazoline-7-carboxamide] | 1 to 10 µM | < 1000 nM | < 1000 nM | < 1000 nM | 1 to 10 µM | – | – |
| CC1c2ccc(C(=O)NCc3c(F)cc(F)cc3F)cc2N(Cc2c(F)cccc2N(C)C)C(=O)N1C (stereo not shown) [Example 175, 1-(2-(dimethylamino)-6-fluorobenzyl)-3,4-dimethyl-2-oxo-N-(2,4,6-trifluorobenzyl)-1,2,3,4-tetrahydroquinazoline-7-carboxamide] | > 10 µM | 1000 to 10000 nM | 1000 to 10000 nM | 1000 to 10000 nM | > 10 µM | – | – |
| COC(=O)c1ccc(F)c(CN2C(=O)N(C)[C@@H](C)c3ccc(C(=O)NCc4c(F)cc(F)cc4F)cc32)c1Cl [Example 185, (S)-methyl 2-chloro-3-((3,4-dimethyl-2-oxo-7-((2,4,6-trifluorobenzyl)carbamoyl)-3,4-dihydroquinazolin-1(2H)-yl)methyl)-4-fluorobenzoate] | 1 to 10 µM | < 1000 nM | < 1000 nM | < 1000 nM | 1 to 10 µM | – | – |
| CC1c2ccc(C(=O)NCc3c(F)cc(F)cc3F)cc2N(Cc2c(F)cccc2C(F)(F)F)C(=O)N1C (stereo not shown) [Example 196, 1-(2-fluoro-6-(trifluoromethyl)benzyl)-3,4-dimethyl-2-oxo-N-(2,4,6-trifluorobenzyl)-1,2,3,4-tetrahydroquinazoline-7-carboxamide] | < 1 µM | < 1000 nM | < 1000 nM | < 1000 nM | < 1 µM | – | – |
| Cc1cccc(F)c1CN1C(=O)N(C)C(C)c2ccc(C(=O)NCc3c(F)cc(F)cc3F)cc21 (stereo not shown) [Example 203, 1-(2-fluoro-6-methylbenzyl)-3,4-dimethyl-2-oxo-N-(2,4,6-trifluorobenzyl)-1,2,3,4-tetrahydroquinazoline-7-carboxamide] | – | < 1000 nM | < 1000 nM | < 1000 nM | – | < 1 µM | < 1 µM |
| CC1c2ccc(C(=O)NCc3c(F)cc(F)cc3F)cc2N(Cc2c(F)cccc2OS(C)(=O)=O)C(=O)N1C (stereo not shown) [Example 204, 2-((3,4-dimethyl-2-oxo-7-((2,4,6-trifluorobenzyl)carbamoyl)-3,4-dihydroquinazolin-1(2H)-yl)methyl)-3-fluorophenyl methanesulfonate] | > 10 µM | < 1000 nM | 1000 to 10000 nM | 1000 to 10000 nM | > 10 µM | – | – |
| Cc1cc(CN2C(=O)N(C)C(C)c3ccc(C(=O)NCc4c(F)cc(F)cc4F)cc32)ccn1 (stereo not shown) [Example 208, 3,4-dimethyl-1-((2-methylpyridin-4-yl)methyl)-2-oxo-N-(2,4,6-trifluorobenzyl)-1,2,3,4-tetrahydroquinazoline-7-carboxamide] | 1 to 10 µM | < 1000 nM | < 1000 nM | < 1000 nM | 1 to 10 µM | – | – |
| Cc1ccc(CNC(=O)c2ccc3c(c2)N(Cc2c(F)cccc2Cl)C(=O)N(C)C3C)o1 (stereo not shown) [Example 212, 1-(2-chloro-6-fluorobenzyl)-3,4-dimethyl-N-((5-methylfuran-2-yl)methyl)-2-oxo-1,2,3,4-tetrahydroquinazoline-7-carboxamide] | > 10 µM | < 1000 nM | 1000 to 10000 nM | 1000 to 10000 nM | > 10 µM | – | – |
| CC1c2ccc(C(=O)NCc3cc4ccccc4o3)cc2N(Cc2c(F)cccc2Cl)C(=O)N1C (stereo not shown) [Example 213, N-(benzofuran-2-ylmethyl)-1-(2-chloro-6-fluorobenzyl)-3,4-dimethyl-2-oxo-1,2,3,4-tetrahydroquinazoline-7-carboxamide] | 1 to 10 µM | < 1000 nM | 1000 to 10000 nM | 1000 to 10000 nM | 1 to 10 µM | – | – |
| C[C@H]1c2ccc(C(=O)NCc3c(F)cc(F)cc3F)cc2N(Cc2ncccc2F)C(=O)N1C [Example 227, (S)-1-((3-fluoropyridin-2-yl)methyl)-3,4-dimethyl-2-oxo-N-(2,4,6-trifluorobenzyl)-1,2,3,4-tetrahydroquinazoline-7-carboxamide] | 1 to 10 µM | < 1000 nM | 1000 to 10000 nM | 1000 to 10000 nM | 1 to 10 µM | – | – |
| CC1c2ccc(C(=O)NCc3ccc(O)cc3)cc2N(Cc2c(F)cccc2Cl)C(=O)N1C (stereo not shown) [Example 235, 1-(2-chloro-6-fluorobenzyl)-N-(4-hydroxybenzyl)-3,4-dimethyl-2-oxo-1,2,3,4-tetrahydroquinazoline-7-carboxamide] | > 10 µM | 1000 to 10000 nM | 1000 to 10000 nM | 1000 to 10000 nM | > 10 µM | – | – |
| Cc1cc(CN2C(=O)N(C)C(C)c3ccc(C(=O)NCc4c(F)cc(F)cc4F)cc32)c(F)cn1 (stereo not shown) [Example 237, 1-((5-fluoro-2-methylpyridin-4-yl)methyl)-3,4-dimethyl-2-oxo-N-(2,4,6-trifluorobenzyl)-1,2,3,4-tetrahydroquinazoline-7-carboxamide] | 1 to 10 µM | < 1000 nM | < 1000 nM | < 1000 nM | 1 to 10 µM | – | – |
| Cc1ccc(F)c(CN2C(=O)N(C)C(C)c3ccc(C(=O)NCc4c(F)cc(F)cc4F)cc32)n1 (stereo not shown) [Example 238, 1-((3-fluoro-6-methylpyridin-2-yl)methyl)-3,4-dimethyl-2-oxo-N-(2,4,6-trifluorobenzyl)-1,2,3,4-tetrahydroquinazoline-7-carboxamide] | 1 to 10 µM | < 1000 nM | 1000 to 10000 nM | 1000 to 10000 nM | 1 to 10 µM | – | – |
| C[C@H]1c2ccc(C(=O)NCc3c(F)cc(F)cc3F)cc2N(Cc2ccc(N=[N+]=[N-])cc2)C(=O)N1C [Example 239, (S)-1-(4-azidobenzyl)-3,4-dimethyl-2-oxo-N-(2,4,6-trifluorobenzyl)-1,2,3,4-tetrahydroquinazoline-7-carboxamide] | 1 to 10 µM | < 1000 nM | 1000 to 10000 nM | 1000 to 10000 nM | 1 to 10 µM | – | – |
| C[C@H]1c2ccc(C(=O)NCc3c(F)cc(F)cc3F)cc2N(Cc2ccc(N)cc2)C(=O)N1C [Example 243, (S)-1-(4-aminobenzyl)-3,4-dimethyl-2-oxo-N-(2,4,6-trifluorobenzyl)-1,2,3,4-tetrahydroquinazoline-7-carboxamide] | > 10 µM | 1000 to 10000 nM | 1000 to 10000 nM | 1000 to 10000 nM | > 10 µM | – | – |
| COc1cc(F)c(CNC(=O)c2ccc3c(c2)N(Cc2c(F)cccc2Cl)C(=O)N(C)[C@H]3C)c(F)c1 [Example 246, (S)-1-(2-chloro-6-fluorobenzyl)-N-(2,6-difluoro-4-methoxybenzyl)-3,4-dimethyl-2-oxo-1,2,3,4-tetrahydroquinazoline-7-carboxamide] | < 1 µM | < 1000 nM | < 1000 nM | < 1000 nM | < 1 µM | – | – |
| C[C@H]1c2ccc(C(=O)NCc3c(F)cc(O)cc3F)cc2N(Cc2c(F)cccc2Cl)C(=O)N1C [Example 252, (S)-1-(2-chloro-6-fluorobenzyl)-N-(2,6-difluoro-4-hydroxybenzyl)-3,4-dimethyl-2-oxo-1,2,3,4-tetrahydroquinazoline-7-carboxamide] | 1 to 10 µM | < 1000 nM | < 1000 nM | < 1000 nM | 1 to 10 µM | – | – |
